Legend:
[1] = target: T1, AR-LBD::TIF2-Box III-LXXLL-Peptide (Homo sapiens, UniProt P10275); assay: AR-LBD::TIF2-Box III-LXXLL-peptide AlphaScreen binding assay; conditions: DHT-induced TIF2 box 3 LXXLL-peptide binding to recombinant AR-LBD
T1 construct: The pET28a-AR-LBD (622–919) construct [78] was a gift; made in house
T1 sequence (P10275 622-919): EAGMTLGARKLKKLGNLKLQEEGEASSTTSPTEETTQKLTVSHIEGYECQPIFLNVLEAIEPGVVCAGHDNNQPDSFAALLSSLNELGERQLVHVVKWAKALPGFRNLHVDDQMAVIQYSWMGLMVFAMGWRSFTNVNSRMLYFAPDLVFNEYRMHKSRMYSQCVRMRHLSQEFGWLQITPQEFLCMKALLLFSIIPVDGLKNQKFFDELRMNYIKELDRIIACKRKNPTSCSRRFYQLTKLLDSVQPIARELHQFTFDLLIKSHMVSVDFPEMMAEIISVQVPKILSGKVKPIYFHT
Excerpt: The pET28a-AR-LBD (622–919) construct was a gift from Dr. Fletterick and Dr. Nguyen of University of California San Francisco. Biotinylated (Biotin-HN-[…]-CONH2) and non-biotinylated TIF2-box-III (738–756) peptide (H2N-[…]-CONH2) were synthesized by the Peptide & Peptoid Synthesis Facility, at the University of Pittsburgh Health Sciences Core Research Facilities. ALPHAScreen streptavidin donor beads (SA-DB) and nickel chelate acceptor beads (Ni-AB) were purchased from Perkin Elmer (Waltham, MA). The assay was performed in 384-well white opaque plates (Greiner BioOne, #781080). […] 18 uL of the SA-DB bound biotinylated TIF2 peptide mixture was added to the assay plate before 5 μL of compounds were transferred into assay wells and 27 μL of the AlphaScreen donor and acceptor bead mixture was added to the plate. 32 wells containing 0.5% DMSO provided maximum controls and 32 wells containing a 500-fold excess of unlabeled TIF2-box-III (75 μM) were used as minimum controls. The combined bead-protein-peptide-compound mixture was incubated for 1 h at room temperature in the dark, and then the RLU’s were acquired at 520 nm after excitation at 680 nm on an Envision plate reader (Perkin Elmer, Waltham, MA) as described previously.

[2] = target: T2, AR-LBD and TIF2 (Homo sapiens, UniProt P10275); assay: TIF2 mammalian 2-hybrid (M2H) assay; format: cell-based; conditions: for IC50: HEK 293 cells, 25 nM DHT, 27 h compound exposure, read-out: M2H AR-TIF2 CoA Recruitment IC50
T2 construct: AR-LBD amino acids 658–919 expressed as a fusion protein with Gal4-DBD; expressed in transfected cells; host or cells: HEK 293
T2 sequence (P10275 658-919): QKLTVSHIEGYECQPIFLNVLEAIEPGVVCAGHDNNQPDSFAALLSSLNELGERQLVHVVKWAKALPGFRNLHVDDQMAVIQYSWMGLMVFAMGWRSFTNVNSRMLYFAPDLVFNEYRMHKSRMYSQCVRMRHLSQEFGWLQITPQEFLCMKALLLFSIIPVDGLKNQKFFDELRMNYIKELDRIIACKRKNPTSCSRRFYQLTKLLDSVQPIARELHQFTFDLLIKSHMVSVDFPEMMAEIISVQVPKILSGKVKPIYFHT
Excerpt: The 5xGAL4-TATA-luciferase reporter plasmid was a gift from Dr. Richard Maurer from the Oregon Health and Science University, and constructs pGAL4-hAR-658–919 (AR-LBD amino acids 658–919 expressed as a fusion protein with Gal4-DBD), pVP16-SRC1 (full--length SRC1 expressed as a fusion with VP16 activation domain) and pVP16-Empty vector were kindly provided to us by Dr. Elizabeth Wilson, from UNC Chapel Hill. pVP16-TIF2 was generated as described previously. HEK 293 cells were transiently co-transfected with 5 ng of pGal4-AR-LBD, 10 ng of either pVP16-TIF2 or pVP16-SRC1, and 20 ng of the 5xGal4-TATA-Luc reporter as described previously. HEK 293 cells were bulk co-transfected with the three plasmids that had been individually incubated with Fugene 6 at a 3:1 ratio for 25 min at room temperature (RT) in serum free media (SFM) and then combined with HEK 293 cells that were suspended in DMEM (Cellgro10013CV) with 2 mM L-glutamine (Invitrogen) that was supplemented with 10% fetal bovine serum, and 5000 cells in a volume of 40 μL were seeded into the wells of white opaque 384-well assay plates (Greiner Bio-one, #781080) and cultured overnight at 37 °C, 5% CO2, and 95% humidity. […] 25 μL of BrightGlo® reagent was added to the plate and the relative luminescence units (RLUs) were captured on a SpectraMax M5e microtiter plate reader (Molecular Devices, LLC, San Jose, CA).

| IC50 [1] [µM] | IC50 [2] [µM] | CoA selectivity, lower IC50 for TIF2 than SRC1 ([2]; M2H assays) | Structure (SMILES) |
| --- | --- | --- | --- |
| 88.3 | 6.38 | – | Cc1c(-c2ccccc2F)[nH]c2ccc(CNC(=O)CCc3cn[nH]c3)cc12 [S3–11] |
| – | 5.44 | – | Cc1c(-c2ccccc2F)[nH]c2ccc(CNC(=O)CCc3cnccn3)cc12 [S3–12] |
| 28.3 | 2.43 | – | Cc1c(-c2ccccc2F)[nH]c2ccc(CNC(=O)c3ccc(CO)o3)cc12 [S3–14] |
| 19.6 | 3.32 | – | Cc1c(-c2ccc(F)cc2)[nH]c2ccc(CNC(=O)c3ccc(CO)o3)cc12 [S3–15] |

Second part, the molecule before the results:

| Structure (SMILES) | IC50 [1] [µM] | IC50 [2] [µM] | CoA selectivity, lower IC50 for TIF2 than SRC1 ([2]; M2H assays) |
| --- | --- | --- | --- |
| Cc1ccccc1-c1cc(O)c2c(c1)CN(c1nc(C(N)=O)cs1)CCO2 [S1–1] | 21.4 | 5.77 | – |
| Cc1ccccc1-c1cc(O)c2c(c1)CN(c1nccs1)CCO2 [S1–3] | 44.1 | 7.46 | – |
| Cc1nsc(NC(=O)N2CCC(Sc3ccccc3C)CC2)n1 [S2–6] | 64.2 | 0.08 | ~ 5 fold |
| CC(=O)NCCC(=O)NCc1ccc2[nH]c(-c3ccccc3F)c(C)c2c1 [S3–13] | 91.6 | 18 | – |
